The target of assay [1] is T1, RXRα-LBD/SRC1_613–773 interaction (Homo sapiens, UniProt P19793).
T1 construct: His-tag (N); made in house; host or cells: E. coli BL21 (DE3)
Put plainly: SPR SRC1 recruitment assay. Particulars: 1 µM RXRα-LBD incubated with compound 1 hour. Format: binding. The procedure: (§1) Binding affinities of Rut towards proteins are analyzed using SPR technology based Biacore 3000 instrument (GE Healthcare). In the assay, proteins are immobilized to CM5 chips using a standard amine-coupling procedure (Biacore manual). The proteins to be covalently bound to the chips are diluted in 10 mM sodium acetate buffer (pH4.5) to a final concentration of 0.10 mg/ml. Before experiments, baseline is equilibrated with a continuous flow of running buffer (10 mM HEPES, 150 mM NaCl, 3 mM EDTA, and 0.005% (v/v) surfactant P20, pH7.4) for 2 hours. Subsequently, Rut with a gradient of concentrations is injected to the channels at a flow rate of 20 µL/min for 60 seconds, followed by disassociation for 120 seconds. The 1∶1 Langmuir binding fitting model in BIAevaluation software version 3.1 (Biacore) is used to determine the equilibrium dissociation constants (K Ds) of compounds. […] Different concentrations of PPARγ-LBD or RXRα-LBD are injected to the channel at a flow rate of 20 µL/min for 60 s, followed by disassociation for 120 s.

For assay [2], the target named is T2, PPARγ-LBD/SRC1_613–773 interaction (Homo sapiens, UniProt P37231).
T2 construct: pET15b-PPARγ-LBD202–477; His-tag (N); made in house; host or cells: E. coli BL21 (DE3)
Put plainly: SPR SRC1 recruitment assay. The assay is classed as binding. Conditions: 1 µM PPARγ-LBD incubated with compound 1 hour. The procedure: as §1

For the next assay, the system named is GLUT4 promoter. Briefly: GLUT4 promoter-luciferase reporter assay in 3T3-L1 adipocytes. Format: cell-based. Particulars: pre-treated 24 hours. The procedure:
(a) Chemical structure of (+)-Rutamarin. […] Green fluorescence represents the total GLUT4, and red fluorescence depicts the translocated GLUT4 to cell membrane. (d) Insulin (170 nM)-induced GLUT4 translocation of CHO-K1/GLUT4 cells treated with compound-2 (C2, 10 µM), pervanadate (Pervan, 100 µM) and Rut (5, 10, 20 µM) for 5 minutes. (e) Immunofluorescence with antibody against GLUT4 (green), DAPI (blue) in 3T3-L1 adipocytes. GLUT4 translocation is detected either in the insulin (17 nM) stimulated 3T3-L1 adipocytes for 5 minutes, or pre-treated with Rut (20 µM) for 8 hours and then stimulated with insulin (17 nM) for 5 minutes. (f) Rut potently stimulates GLUT4 promoter activity in 3T3-L1 adipocytes (20 µM, Rut was pre-treated in the cells for 24 hours. Reporter gene is GLUT4 promoter-luciferase plasmid together with Renilla luciferase expression vector as a control). (g) H^3-glucose uptake assay in fully differentiated 3T3-L1 adipocytes treated with C2 (10 µM) and different doses of Rut (5–25 µM). Treatment of Rut for 30 minutes improves the insulin (17 nM)-stimulated glucose uptake. (h) GLUT4 expression is determined by western blotting with an antibody against GLUT4 in 3T3-L1 adipocytes treated with Rut (20 µM) for 48 hours. Data are presented as means ± s.e.m (*P<0.05, **P<0.01) from three independent experiments.

The next assay deals with T3, PTP1B (D48A) (Homo sapiens, UniProt P18031, D48A).
T3 construct: pGEX4T-1-PTP1B1–321; GST (N); made in house; host or cells: E. coli (BL21 (DE3) stated for the wild-type plasmid)
Put plainly: PTP enzyme inhibition assay, D48A mutant. Format: biochemical. As to the method:
The plasmid pGEX4T1-PTP1B (D48A) is generated by site-directed mutagenesis with pGEX4T1-PTP1B (WT) as template. The primer pairs are sense: 5′-[…]-3′ and antisense: 5′-[…]-3′.
The enzymatic activities of the recombinant PTPs are measured at 25°C using pNPP as substrate. The initial velocities of enzymatic reactions are determined by continuously measuring the absorbance at 405 nm every 15 s using a microplate spectrophotometer (Bio-Rad). […] To determine the inhibition type, each concentration of Rut (0, 50 and 75 µM) is incubated with PTP1B (0.3 µM) in reaction buffer (50 mM HEPES, pH7.0, 1 mM EDTA, and 100 mM NaCl) for 10 min and the reactions are initiated by different concentrations of pNPP (0.5–10 mM). The inhibition type is determined using double-reciprocal plots. In determination of the selectivity of Rut against PTPs, the result is referred as no inhibition when 100 µM Rut inhibits no enzyme activity. The same reaction systems are designed for all PTPs including PTP1B.

The target of assay [3] is interaction of RXRα with SRC1 (Homo sapiens, UniProt P19793). Briefly: Yeast two-hybrid assay. Conditions: AH109 strain, 48 hours.
The next assay concerns 3T3-L1 adipocytes. Briefly: GLUT4 translocation by immunofluorescence in 3T3-L1 adipocytes. Format: cell-based. Particulars: Rut 20 µM, insulin 17 nM. As to the method: For GLUT4 translocation assay in 3T3-L1 adipocytes, the cells are fully differentiated (the 10th day after MDI stimulation), and seeded onto 24-well plates. After cultured in serum-free medium for 8 h, cells are incubated with Rut for 2 h and insulin for 10 min, and then rinsed with PBS, fixed with 4% formaldehyde for 10 min, and permeated with 0.2% Triton X-100 in PBS for 10 min. Cells are subsequently washed with PBS and 3% bovine serum albumin for 20 min, and sequentially incubated with primary antibody (Abcam GLUT4 antibody) for 1 h and secondary antibody (Alexa Fluor 488 conjuncted anti-mouse antibody) for another 1 h. Finally, the glass-slips are washed with PBS for examination using OLYMPUS FV-1000 confocal microscope. All pictures are made in the same time experiment.

T1 sequence (P19793 227-458 limits assumed): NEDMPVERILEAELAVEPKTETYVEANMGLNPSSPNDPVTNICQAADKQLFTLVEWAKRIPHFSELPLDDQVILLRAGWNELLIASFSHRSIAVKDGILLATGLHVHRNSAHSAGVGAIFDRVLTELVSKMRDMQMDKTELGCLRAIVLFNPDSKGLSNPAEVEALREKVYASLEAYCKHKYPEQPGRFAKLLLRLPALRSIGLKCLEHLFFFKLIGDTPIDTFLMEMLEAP
T1 sequence (Q15788 613-773 partner limits assumed): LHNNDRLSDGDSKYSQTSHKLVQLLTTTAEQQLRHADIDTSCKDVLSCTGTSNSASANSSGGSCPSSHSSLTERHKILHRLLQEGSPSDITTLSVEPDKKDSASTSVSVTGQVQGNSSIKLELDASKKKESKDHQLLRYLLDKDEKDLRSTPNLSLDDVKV
Sequence of interaction of RXRα with SRC1 (P19793 223-462 limits assumed): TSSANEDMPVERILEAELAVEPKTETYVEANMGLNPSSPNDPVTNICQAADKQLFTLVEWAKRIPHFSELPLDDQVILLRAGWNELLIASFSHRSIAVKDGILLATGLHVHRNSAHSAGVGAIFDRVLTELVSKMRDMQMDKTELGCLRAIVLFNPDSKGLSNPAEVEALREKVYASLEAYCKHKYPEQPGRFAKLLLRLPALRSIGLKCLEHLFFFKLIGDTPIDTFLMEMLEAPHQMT
Sequence of interaction of RXRα with SRC1 (Q15788 613-773 partner limits assumed): as the sequence (Q15788 613-773 partner limits assumed) above
T3 sequence (P18031 1-321 D48A): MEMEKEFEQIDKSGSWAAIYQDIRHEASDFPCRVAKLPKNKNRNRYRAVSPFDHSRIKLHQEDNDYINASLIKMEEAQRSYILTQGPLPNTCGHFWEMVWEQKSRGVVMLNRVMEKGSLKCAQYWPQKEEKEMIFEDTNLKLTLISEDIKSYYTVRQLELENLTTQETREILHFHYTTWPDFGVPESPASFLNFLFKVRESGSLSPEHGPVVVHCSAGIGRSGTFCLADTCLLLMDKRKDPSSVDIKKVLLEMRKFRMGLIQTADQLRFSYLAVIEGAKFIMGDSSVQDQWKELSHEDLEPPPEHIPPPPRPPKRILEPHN
T2 sequence (P37231 230-505): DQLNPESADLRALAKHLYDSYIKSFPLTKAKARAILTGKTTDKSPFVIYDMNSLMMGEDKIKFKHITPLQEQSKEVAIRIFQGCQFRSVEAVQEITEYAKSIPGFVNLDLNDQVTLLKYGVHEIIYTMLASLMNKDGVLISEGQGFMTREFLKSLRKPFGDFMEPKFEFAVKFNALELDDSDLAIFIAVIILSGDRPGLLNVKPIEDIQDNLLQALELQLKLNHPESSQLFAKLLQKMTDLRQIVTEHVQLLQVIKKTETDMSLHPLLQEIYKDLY
T2 sequence (Q15788 613-773 partner limits assumed): as the sequence (Q15788 613-773 partner limits assumed) above

With `C=CC(C)(C)c1cc2cc3c(cc2oc1=O)O[C@H](C(C)(C)OC(C)=O)C3` [(+)-Rutamarin], the “effect on interaction between RXRα-LBD and SRC1” value in assay [1] is recorded as “efficiently enhances”. The “effect on interaction between PPARγ-LBD and SRC1” value in assay [2] is “cannot enhance”. In addition, in the assay on GLUT4 promoter, the GLUT4 promoter activity result is “dose-dependently induce”. Further, it took 14.8 µM to reach half-maximal inhibition against PTP1B (D48A) (IC50). In addition, the “interaction of SRC1 with RXRα (α-galactosidase activity)” value in assay [3] was “dose-dependently enhances”. Besides, the “GLUT4 translocation in fully differentiated 3T3-L1 adipocytes” value in the assay with 3T3-L1 adipocytes is given as “significantly induces”.

These data come from publication PMC3288053 (PLoS ONE, 2012).
